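96-well plates; 48 h exposure; 5 concentrations. Endpoints by linear interpolation between flanking doses. Not reached: highest tested concentration assigned. Here, GI50 denotes the concentration required for 50% inhibition of growth.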 Active and inactive are the calls of the source. Cut-off read from the data, not from the text of the source: active = GI50 up to about 1.1 µM and inactive = higher.
What was measured:
Test in all cases: NCI anticancer screen, dose series, 48 h
[1] = test system: A549
[2] = test system: CAKI-1
[3] = test system: DU-145
[4] = test system: HL-60
[5] = test system: HT-29
[6] = test system: LOX IMVI
[7] = test system: MDA-MB-231
[8] = test system: Malme-3M
[9] = test system: NCI-H460
[10] = test system: OVCAR-3
[11] = test system: OVCAR-8
[12] = test system: PC-3
[13] = test system: SF-268
[14] = test system: SK-MEL-28
[15] = test system: SN12C
[16] = test system: SNB-19
[17] = test system: SNB-75
[18] = test system: UACC-62
[19] = test system: UO-31
[20] = test system: MCF7

Row | Structure (SMILES) | GI50 [1] | GI50 [2] | GI50 [3] | GI50 [4] | GI50 [5] | GI50 [6] | GI50 [7] | GI50 [8] | GI50 [9] | GI50 [10] | GI50 [11] | GI50 [12] | GI50 [13] | GI50 [14] | GI50 [15] | GI50 [16] | GI50 [17] | GI50 [18] | GI50 [19] | GI50 [20]
1 | CCN(CC)C(=O)c1cc([N+](=O)[O-])c(=O)n2c1[nH]c1ccccc12 | > 100 µM (inactive) | > 100 µM (inactive) | > 100 µM (inactive) | > 100 µM (inactive) | > 100 µM (inactive) | > 100 µM (inactive) | > 100 µM (inactive) | > 100 µM (inactive) | > 100 µM (inactive) | > 100 µM (inactive) | > 100 µM (inactive) | > 100 µM (inactive) | > 100 µM (inactive) | > 100 µM (inactive) | > 100 µM (inactive) | > 100 µM (inactive) | > 100 µM (inactive) | > 100 µM (inactive) | > 100 µM (inactive) | –
2 | Cc1oc2nc(N(C)C)nc(Cl)c2c1C | > 100 µM (inactive) | 49.4 µM (inactive) | > 100 µM (inactive) | > 100 µM (inactive) | > 100 µM (inactive) | – | > 100 µM (inactive) | – | > 100 µM (inactive) | > 100 µM (inactive) | > 100 µM (inactive) | > 100 µM (inactive) | > 100 µM (inactive) | > 100 µM (inactive) | > 100 µM (inactive) | > 100 µM (inactive) | 3.89 µM (inactive) | > 100 µM (inactive) | 26.8 µM (inactive) | –
3 | CN1CCN(C(=S)N(C(=O)c2cccs2)c2ccccc2)CC1 | > 100 µM (inactive) | – | > 100 µM (inactive) | > 100 µM (inactive) | > 100 µM (inactive) | > 100 µM (inactive) | > 100 µM (inactive) | > 100 µM (inactive) | > 100 µM (inactive) | > 100 µM (inactive) | > 100 µM (inactive) | – | > 100 µM (inactive) | > 100 µM (inactive) | > 100 µM (inactive) | > 100 µM (inactive) | 56 µM (inactive) | > 100 µM (inactive) | > 100 µM (inactive) | > 100 µM (inactive)
4 | COc1ccc(O)c(/C=N/CCC/N=C/c2cc(OC)ccc2O)c1 | 70.8 µM (inactive) | – | 22 µM (inactive) | 1.21 µM (inactive) | 37.5 µM (inactive) | – | 31.3 µM (inactive) | 13.7 µM (inactive) | 41.4 µM (inactive) | 6.59 µM (inactive) | 15.7 µM (inactive) | 24.5 µM (inactive) | – | 46.2 µM (inactive) | 30 µM (inactive) | 21.6 µM (inactive) | 18.3 µM (inactive) | 33.1 µM (inactive) | 33.5 µM (inactive) | 20.9 µM (inactive)
5 | CCOC(=O)[C@@H]1ON2O[C@@H](OC3CCCCC3c3ccccc3)C[C@H]3OC(=O)[C@@H]1C32 (stereo not given in full) | 80.7 µM (inactive) | 51.9 µM (inactive) | > 100 µM (inactive) | – | > 100 µM (inactive) | > 100 µM (inactive) | 84.7 µM (inactive) | – | 38.1 µM (inactive) | > 100 µM (inactive) | > 100 µM (inactive) | – | > 100 µM (inactive) | – | > 100 µM (inactive) | – | > 100 µM (inactive) | > 100 µM (inactive) | > 100 µM (inactive) | > 100 µM (inactive)
6 | COC(=O)c1ccc(C)cc1/C=C1\Cc2ccc(C)cc2C1=O | 26.9 µM (inactive) | 26.3 µM (inactive) | 16.7 µM (inactive) | 4.78 µM (inactive) | 4.73 µM (inactive) | 12.9 µM (inactive) | – | 10.2 µM (inactive) | 40.2 µM (inactive) | 6.52 µM (inactive) | 21.2 µM (inactive) | 17.9 µM (inactive) | 14.2 µM (inactive) | 16.6 µM (inactive) | 16.7 µM (inactive) | 17.2 µM (inactive) | 5.64 µM (inactive) | 11.4 µM (inactive) | 11 µM (inactive) | 11.2 µM (inactive)
7 | O=c1n(CCCN2CCN(c3cccc(Cl)c3)CC2)nc2n1-c1ccc3ccccc3c1SC2 | > 100 µM (inactive) | > 100 µM (inactive) | > 100 µM (inactive) | > 100 µM (inactive) | 9.04 µM (inactive) | > 100 µM (inactive) | – | – | > 100 µM (inactive) | > 100 µM (inactive) | > 100 µM (inactive) | > 100 µM (inactive) | – | > 100 µM (inactive) | > 100 µM (inactive) | > 100 µM (inactive) | > 100 µM (inactive) | > 100 µM (inactive) | – | > 100 µM (inactive)
8 | COc1ccc(C2N(c3ccc(F)cc3)C(=O)N3C(c4ccc(OC)cc4)N(c4ccc(F)cc4)C(=O)N23)cc1 (stereo not given) | > 100 µM (inactive) | > 100 µM (inactive) | > 100 µM (inactive) | > 100 µM (inactive) | > 100 µM (inactive) | > 100 µM (inactive) | > 100 µM (inactive) | > 100 µM (inactive) | > 100 µM (inactive) | > 100 µM (inactive) | > 100 µM (inactive) | > 100 µM (inactive) | > 100 µM (inactive) | > 100 µM (inactive) | > 100 µM (inactive) | > 100 µM (inactive) | > 100 µM (inactive) | > 100 µM (inactive) | > 100 µM (inactive) | –
9 | CCOC(=O)c1c(N2CCCC2)ncn(-c2ccccc2)c1=S | > 100 µM (inactive) | – | > 100 µM (inactive) | > 100 µM (inactive) | > 100 µM (inactive) | > 100 µM (inactive) | – | 57.5 µM (inactive) | > 100 µM (inactive) | 49.4 µM (inactive) | > 100 µM (inactive) | > 100 µM (inactive) | 28.4 µM (inactive) | > 100 µM (inactive) | > 100 µM (inactive) | > 100 µM (inactive) | > 100 µM (inactive) | > 100 µM (inactive) | > 100 µM (inactive) | –
10 | CC[C@](C)(O)C(=O)O[C@H]1C(=O)O[C@@H]2C[C@H]3C(C)=CC(=O)[C@@H](O)[C@]3(C)[C@H]3[C@@]4(O)OC[C@]32[C@@H]1[C@@H](C)[C@H]4O [GLAUCARUBINONE] | 1.21 µM (inactive) | – | 0.824 µM (active) | 0.05 µM (active) | – | 0.0354 µM (active) | 0.946 µM (active) | – | 0.0912 µM (active) | 0.0982 µM (active) | 0.0753 µM (active) | 0.458 µM (active) | 0.0661 µM (active) | 0.05 µM (active) | 0.158 µM (active) | 0.0933 µM (active) | 0.0585 µM (active) | 0.051 µM (active) | 0.378 µM (active) | –
11 | N#CC(C(=O)C(=O)Nc1ccc(Cl)c(Cl)c1)c1ccc(Cl)cc1 (stereo not given) | 97.3 µM (inactive) | > 100 µM (inactive) | – | 47.2 µM (inactive) | 69.2 µM (inactive) | 16.7 µM (inactive) | – | 97.3 µM (inactive) | 32.1 µM (inactive) | 37.7 µM (inactive) | > 100 µM (inactive) | – | > 100 µM (inactive) | > 100 µM (inactive) | 91 µM (inactive) | 65.5 µM (inactive) | > 100 µM (inactive) | 30.5 µM (inactive) | 47.1 µM (inactive) | –
12 | CCN(CC)CCC(=O)NC1c2ccc(Cl)cc2Oc2c(C)cccc21 (stereo not given) | 16.5 µM (inactive) | – | 16 µM (inactive) | 13.9 µM (inactive) | 12.9 µM (inactive) | 14.5 µM (inactive) | 20.8 µM (inactive) | – | 16.6 µM (inactive) | 15.5 µM (inactive) | 16.9 µM (inactive) | 13.2 µM (inactive) | 8.53 µM (inactive) | 14.6 µM (inactive) | 17.3 µM (inactive) | 14 µM (inactive) | 10.2 µM (inactive) | 16.9 µM (inactive) | 8.89 µM (inactive) | 15.7 µM (inactive)
13 | CC(C)(C)OC(=O)NCCC(N)=S | > 100 µM (inactive) | – | > 100 µM (inactive) | > 100 µM (inactive) | > 100 µM (inactive) | – | – | > 100 µM (inactive) | > 100 µM (inactive) | > 100 µM (inactive) | > 100 µM (inactive) | > 100 µM (inactive) | > 100 µM (inactive) | > 100 µM (inactive) | > 100 µM (inactive) | > 100 µM (inactive) | > 100 µM (inactive) | > 100 µM (inactive) | > 100 µM (inactive) | > 100 µM (inactive)
14 | Cc1ccc(/N=N/c2c(O)c(C(=O)O)cc3ccccc23)c(S(=O)(=O)O)c1 | > 100 µM (inactive) | > 100 µM (inactive) | > 100 µM (inactive) | – | > 100 µM (inactive) | > 100 µM (inactive) | > 100 µM (inactive) | > 100 µM (inactive) | – | > 100 µM (inactive) | > 100 µM (inactive) | > 100 µM (inactive) | > 100 µM (inactive) | > 100 µM (inactive) | > 100 µM (inactive) | > 100 µM (inactive) | > 100 µM (inactive) | > 100 µM (inactive) | > 100 µM (inactive) | –
15 | O=C1NN=C(c2c[nH]c3ccccc23)CC1NCc1ccccc1 (stereo not given) | > 100 µM (inactive) | > 100 µM (inactive) | > 100 µM (inactive) | > 100 µM (inactive) | > 100 µM (inactive) | > 100 µM (inactive) | > 100 µM (inactive) | > 100 µM (inactive) | > 100 µM (inactive) | > 100 µM (inactive) | > 100 µM (inactive) | > 100 µM (inactive) | > 100 µM (inactive) | > 100 µM (inactive) | > 100 µM (inactive) | > 100 µM (inactive) | > 100 µM (inactive) | > 100 µM (inactive) | > 100 µM (inactive) | –
